From patent US20240279223A1, “5-OXO-PYRIDO[2,3-D]PYRIDAZIN-6(5H)-YL ACETAMIDES” (JANSSEN PHARMACEUTICA NV, priority 2021, published 2024)

Assays:
[1] = tested on: TNF; test: PBMC assay: TNF cytokine levels after LPS stimulation; type: cell-based; conditions: human PBMCs, 30 min preincubation, 100 ng/ml LPS for 6 hrs, supernatant, MSD technology
Description: (§1) Peripheral venous blood was collected from healthy individuals and human peripheral blood mononuclear cells (PBMCs) were isolated from blood by Ficoll-Histopaque (Sigma-Aldrich, A0561) density gradient centrifugation. After isolation, PBMCs were stored in liquid nitrogen for later use. Upon thawing, PBMC cell viability was determined in growth medium (RPMI media supplemented with 10% fetal bovine serum, 1% Pen-Strep and 1% L-glutamine). Compounds were spotted in a 1:3 serial dilution in DMSO and diluted to the final concentration in 30 μl medium in 96 well plates (Falcon, 353072). PBMCs were added at a density of 7.5×10^4 cells per well and incubated for 30 min in a 5% CO2 incubator at 37° C. LPS stimulation was performed by addition of 100 ng/ml LPS (final concentration, Invivogen, tirl-smlps) for 6 hrs followed by collection of cellular supernatant and the analysis of IL-1β (μM) and TNF cytokines levels (μM) via MSD technology according to manufacturers' guidelines (MSD, K 151A0H).
(§2) The IC50 values (for IL-1β) and EC50 values (TNF) were obtained on compounds of the invention/examples, and are depicted in the following table: […]

[2] = tested on: IL-1β; test: PBMC assay: IL-1β release after LPS stimulation; type: cell-based; conditions: human PBMCs, 30 min preincubation, 100 ng/ml LPS for 6 hrs, supernatant, MSD technology
Description: as §1, §2

Row | EC50 ([1]; Homo sapiens, PBMC) [µM] | IC50 ([2]; Homo sapiens, PBMC) [µM] | EC50 [1] [µM] | IC50 [2] [µM] | Compound
1 | 12.6 | 0.41 |  |  | CC(C)c1nn(CC(=O)Nc2ccnnc2)c(=O)c2ccc(C(F)(F)F)nc12 [Compound 18]
2 | 11.8 | 0.06 |  |  | CC(C)c1nn(CC(=O)Nc2cncnc2)c(=O)c2ccc(C(F)(F)F)nc12 [Compound 19]
3 | > 20 | 2.93 |  |  | CC(C)c1nn(CC(=O)Nc2ccc3nncn3n2)c(=O)c2ccc(C(F)(F)F)nc12 [Compound 20, N-([1,2,4]triazolo[4,3-b]pyridazin-6-yl)-2-(8-isopropyl-5-oxo-2-(trifluoromethyl)pyrido[2,3-d]pyridazin-6(5H)-yl)acetamide]
4 | 2.87 | 0.07 |  |  | CC(C)c1nn(CC(=O)Nc2ccc3nncn3n2)c(=O)c2ccc(C(C)(F)F)nc12 [Compound 21]
5 |  |  | 5.86 | 0.15 | CN(C)c1nn(CC(=O)Nc2ccc3nncn3n2)c(=O)c2ccc(C(F)(F)F)nc12 [Compound 22]
6 |  |  | > 20 | 0.34 | CN(C)c1nn(CC(=O)Nc2ccc3nncn3n2)c(=O)c2ccc(C(F)(F)F)nc12 [Compound 23]
7 | > 20 |  |  | 0.3 | CN(C)c1nn(CC(=O)Nc2ccc3nncn3n2)c(=O)c2ccc(C(C)(F)F)nc12 [Compound 24]
8 |  |  | > 20 | 0.75 | CN(C)c1nn(CC(=O)Nc2ccc3nncn3n2)c(=O)c2ccc(C(C)(F)F)nc12 [Compound 25]
9 | > 20 | 0.17 |  |  | CC(C)c1nn(CC(=O)Nc2ccc3cn[nH]c3c2)c(=O)c2ccc(C(F)(F)F)nc12 [Compound 26, N-(1H-indazol-6-yl)-2-(8-isopropyl-5-oxo-2-(trifluoromethyl)pyrido[2,3-d]pyridazin-6(5H)-yl)acetamide]

The remaining lines, values behind:

Row | Compound | EC50 ([1]; Homo sapiens, PBMC) [µM] | IC50 ([2]; Homo sapiens, PBMC) [µM] | EC50 [1] [µM] | IC50 [2] [µM]
10 | CCc1nn(CC(=O)N[C@H]2C[C@@](C)(O)C2)c(=O)c2ccc(C(C)C)nc12 [Compound 1] | 10.6 | 0.52 |  | 
11 | CCc1nn(CC(=O)Nc2ccncn2)c(=O)c2ccc(C(C)C)nc12 [Compound 2] | > 20 | 1.49 |  | 
12 | CCc1nn(CC(=O)Nc2ccncn2)c(=O)c2ccc(C3CC3)nc12 [Compound 3] | > 20 | 4.49 |  | 
13 | CCc1nn(CC(=O)N[C@H]2C[C@@](C)(O)C2)c(=O)c2ccc(C3CC3)nc12 [Compound 4] |  | 0.37 |  | 
14 | CCc1nn(CC(=O)Nc2ccc3nncn3c2)c(=O)c2ccc(C3CC3)nc12 [Compound 5] | 12.9 | 0.32 |  | 
15 | CCc1ccc2c(=O)n(CC(=O)N[C@H]3C[C@@](C)(O)C3)nc(CC)c2n1 [Compound 6] | 17.8 | 0.78 |  | 
16 | CCc1nn(CC(=O)Nc2ccc3nncn3c2)c(=O)c2ccc(OC)nc12 [Compound 7] | > 20 | 6.77 |  | 
17 | CC(C)c1nn(CC(=O)Nc2ccc3nncn3c2)c(=O)c2ccc(C(C)(F)F)nc12 [Compound 8] | 17 | 0.12 |  | 
18 | CN(C)c1nn(CC(=O)Nc2ccc3nncn3c2)c(=O)c2ccc(C(F)(F)F)nc12 [Compound 9] | > 20 | 0.32 |  | 
19 | CN(C)c1nn(CC(=O)Nc2ccc3nncn3c2)c(=O)c2ccc(C(C)(F)F)nc12 [Compound 10] | > 20 | 0.3 |  | 
20 | CC(C)c1nn(CC(=O)Nc2ccc3cnn(C(=O)OC(C)(C)C)c3c2)c(=O)c2ccc(C(F)(F)F)nc12 [Compound 11, tert-butyl 6-(2-(8-isopropyl-5-oxo-2-(trifluoromethyl)pyrido[2,3-d]pyridazin-6(5H)-yl)acetamido)-1H-indazole-1-carboxylate] | > 20 | 0.52 |  | 
21 | CC(C)c1nn(CC(=O)NC2CCOCC2)c(=O)c2ccc(C(F)(F)F)nc12 [Compound 12] | > 20 | 0.78 |  | 
22 | CC(C)c1nn(CC(=O)Nc2ccc3nncn3c2)c(=O)c2ccc(C(F)(F)F)nc12 [Compound 13] | > 20 | 0.1 |  | 
23 | CC(C)c1nn(CC(=O)N[C@H]2C[C@@](C)(O)C2)c(=O)c2ccc(C(F)(F)F)nc12 [Compound 14] | > 20 | 0.05 |  | 
24 | CC(C)c1nn(CC(=O)Nc2ccc3nccn3c2)c(=O)c2ccc(C(F)(F)F)nc12 [Compound 15] | > 20 | 0.39 |  | 
25 | CC(C)c1nn(CC(=O)Nc2ccc(=O)n(C)c2)c(=O)c2ccc(C(F)(F)F)nc12 [Compound 16] | > 20 | 0.33 |  | 
26 | Cc1cc(NC(=O)Cn2nc(C(C)C)c3nc(C(F)(F)F)ccc3c2=O)ccn1 [Compound 17] | 16.6 | 0.48 |  | 
